Reference: PubChem BioAssay AID2060898 (Molecular Pharmacology Branch, DTP, NCI, 2025)

Tested on: 616215-338-R-J1-PDC complex spheroid viability
Assay: Anticancer human tumor 616215-338-R-J1-PDC patient-derived colon adenocarcinoma cell line growth inhibition [RAS]
Conditions: for IC50: curve of first compound; for viability, T/C: stronger effect = lower value
Description: RAS pathway inhibitors in Combinations in Complex Spheroids
A high-throughput screen of multi-cell type tumor spheroids was designed to identify active combinations of RAS pathway inhibitors and targeted small molecules. Complex spheroids include a stromal component modeled by human endothelial cells (HUVEC) and fibroblasts modeled by human mesenchymal stem cells (MSCs). The concentration ranges selected for each drug and investigational agent were based upon clinically achievable concentrations if the clinical Cmax of the agent was known.
Compounds. The drugs and investigational agents: abemaciclib (NSC768073), cobimetinib (NSC768068), divarasib (GDC6063, NSC841802), docetaxel (NSC628503), GDC-1971 (RLY-1971, NSC841576), gemcitabine (NSC613327), inavolisib (NSC800729), ipatasertib (NSC767898), KB-0742 (NSC834161), MRTX-1133 (NSC836407), osimertinib (NSC779217), RMC-4630 (NSC839698), RMC-6236 (NSC851965), RMC-6291 (NSC852671), Ro-3306 (NSC812927), sapanisertib (NSC764658), SN-38 (NSC673596), staurosporine (NSC755774), SY5609 (NSC837396), and tovorafenib (DAY101, NSC766906), were obtained from the National Cancer Institute (NCI) Developmental Therapeutics Program Chemical Repository. The FDA-approved anticancer drug set is available from the NCI Developmental Therapeutics Program. […] The stock solutions were prepared in dimethyl sulfoxide (DMSO, Sigma-Aldrich, St. Louis, MO, cat. D2650) at 800-fold the tested concentration and stored at -70 degrees C prior to their use. All drugs and investigational agents were tested over a range starting from a high concentration at or near the clinical Cmax and decreasing in half-log increments. If the clinical Cmax for an agent had not been determined, the highest concentration tested was 10 microM.
Cell Culture. All cells were maintained in an incubator at 37 degrees C and 5% CO2 with 95% humidity. The PDC lines were cultured according to standard operating procedures established by the NCI PDMR. All PDCs were thawed and cultured in Matrigel-coated flasks prepared with a working solution of 1X Ham's F-12 nutrient mix, without supplementation (Invitrogen, Waltham, MA, cat. 11765054), 100 U/mL penicillin-streptomycin (Invitrogen, cat. 15140122), and 2.5% Matrigel (Corning Inc., Corning, NY, cat. 354248) for the first three passages. The 362531-283-R-J2-PDC and 782815-120-R-J1-PDC lines were cultured in 6C/Colon 1B media, which includes advanced DMEM/F-12 (Thermo Fisher Scientific, cat. 12634028), 10 mM HEPES (Thermo Fisher Scientific, cat. 15630080), 1X GlutaMAX supplement (Thermo Fisher Scientific, cat. 35050061), 0.1 mg/mL primocin (InvivoGen, San Diego, CA, cat. ant-pm-2), 10% defined fetal bovine serum, heat inactivated (HyClone Laboratories Inc., Logan, UT, cat. SH30070.03HI), 50% L-WRN conditioned media (ATCC, cat. CRL-3276), 1.25 mM N-Acetyl-L-cysteine (Sigma-Aldrich, cat. A9165), 10 mM nicotinamide (Sigma-Aldrich, cat. N0636), 1X B-27 supplement (Thermo Fisher Scientific, cat. 17504044), 1X N-2 supplement (Thermo Fisher Scientific, cat. 17502048), 50 ng/mL human EGF (Thermo Fisher Scientific, cat. PHG0311), and 10 microM Y-27632 dihydrochloride (Tocris Bioscience, cat. 1254). The K12877-001-R-J1-PDC line was cultured in 6I media, which includes all 6C/Colon 1B media plus 10 ng/mL human FGF-10 (PeproTech, cat. 100-26), 1 ng/mL human FGF-2 (PeproTech, cat. 100-18B), 1 µM prostaglandin E2 (Tocris Bioscience, cat. 2296), […] hydrocortisone (Sigma-Aldrich, cat. H4001), and […] bovine insulin (Sigma-Aldrich, cat. I6634). The K86415-001-R-J1-PDC line was cultured in 6D media, which includes all 6C/Colon 1B media components minus the L-WRN conditioned media. The 485176-168-R4-J1-PDC was cultured in PANC media, which includes all 6C/Colon 1B media plus 100 ng/mL human FGF-10 (PeproTech, cat. 100-26), 500 nM SB-431542 (Selleckchem, cat. S1067), and 10 nM gastrin (Tocris Bioscience, cat. 3006). […]

[1] = second compound 0.0316 µM, first compound 0.0316 µM
[2] = second compound 0.0316 µM, first compound 0.1 µM
[3] = second compound 0.0316 µM, first compound 0.316 µM
[4] = second compound 0.0316 µM, first compound 1 µM
[5] = second compound 0.0316 µM, first compound 3.16 µM
[6] = second compound 0.0316 µM, first compound 10 µM
[7] = second compound 0.1 µM, first compound 0.0316 µM
[8] = second compound 0.1 µM, first compound 0.1 µM
[9] = second compound 0.1 µM, first compound 0.316 µM
[10] = second compound 0.1 µM, first compound 1 µM
[11] = second compound 0.1 µM, first compound 3.16 µM
[12] = second compound 0.1 µM, first compound 10 µM
[13] = second compound 0.316 µM, first compound 0.0316 µM
[14] = second compound 0.316 µM, first compound 0.1 µM
[15] = second compound 0.316 µM, first compound 0.316 µM
[16] = second compound 0.316 µM, first compound 1 µM
[17] = second compound 0.316 µM, first compound 3.16 µM
[18] = second compound 0.316 µM, first compound 10 µM
[19] = second compound 1 µM, first compound 0.0316 µM
[20] = second compound 1 µM, first compound 0.1 µM
[21] = second compound 1 µM, first compound 0.316 µM
[22] = second compound 1 µM, first compound 1 µM
[23] = second compound 1 µM, first compound 3.16 µM
[24] = second compound 1 µM, first compound 10 µM
[25] = second compound 3.16 µM, first compound 0.0316 µM
[26] = second compound 3.16 µM, first compound 0.1 µM
[27] = second compound 3.16 µM, first compound 0.316 µM
[28] = second compound 3.16 µM, first compound 1 µM
[29] = second compound 3.16 µM, first compound 3.16 µM
[30] = second compound 3.16 µM, first compound 10 µM
[31] = second compound 10 µM, first compound 0.0316 µM
[32] = second compound 10 µM, first compound 0.1 µM
[33] = second compound 10 µM, first compound 0.316 µM
[34] = second compound 10 µM, first compound 1 µM
[35] = second compound 10 µM, first compound 3.16 µM
[36] = second compound 10 µM, first compound 10 µM
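Further: spheroids exposed to agents for seven days before viability readout.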
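Wherever viability, T/C is given: 100% = DMSO vehicle control viability.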

CC(C)NCC(C(=O)N1CCN(c2ncnc3c2C(C)CC3O)CC1)c1ccc(Cl)cc1 (stereo unspecified) + C#Cc1c(F)ccc2cc(O)cc(-c3ncc4c(N5CC6CCC(C5)N6)nc(OCC56CCCN5CC(F)C6)nc4c3F)c12
IC50 (second compound 0.0316 µM): 8.8 µM | IC50 (second compound 0.1 µM): 8.47 µM | IC50 (second compound 0.316 µM): 7.91 µM | IC50 (second compound 1 µM): 7.71 µM | IC50 (second compound 3.16 µM): 4.6 µM | IC50 (second compound 10 µM): 2.13 µM | viability, T/C [1]: 107% | viability, T/C [2]: 103% | viability, T/C [3]: 108% | viability, T/C [4]: 111% | viability, T/C [5]: 99.5% | viability, T/C [6]: 43.8% | viability, T/C [7]: 104% | viability, T/C [8]: 109% | viability, T/C [9]: 105% | viability, T/C [10]: 111% | viability, T/C [11]: 91.8% | viability, T/C [12]: 43% | viability, T/C [13]: 113% | viability, T/C [14]: 110% | viability, T/C [15]: 110% | viability, T/C [16]: 108% | viability, T/C [17]: 81.5% | viability, T/C [18]: 42% | viability, T/C [19]: 114% | viability, T/C [20]: 121% | viability, T/C [21]: 115% | viability, T/C [22]: 103% | viability, T/C [23]: 75.7% | viability, T/C [24]: 42.5% | viability, T/C [25]: 107% | viability, T/C [26]: 101% | viability, T/C [27]: 94.5% | viability, T/C [28]: 97.2% | viability, T/C [29]: 60.3% | viability, T/C [30]: 28.4% | viability, T/C [31]: 81.2% | viability, T/C [32]: 82.2% | viability, T/C [33]: 89.2% | viability, T/C [34]: 74.1% | viability, T/C [35]: 37.2% | viability, T/C [36]: 18.5%

CC(C)n1nc(-c2ccc3oc(N)nc3c2)c2c(N)ncnc21 + C#Cc1c(F)ccc2cc(O)cc(-c3ncc4c(N5CC6CCC(C5)N6)nc(OCC56CCCN5CC(F)C6)nc4c3F)c12
IC50 (second compound 0.0316 µM): > 0.1 µM | IC50 (second compound 0.1 µM): > 0.1 µM | IC50 (second compound 0.316 µM): > 0.1 µM | IC50 (second compound 1 µM): > 0.1 µM | IC50 (second compound 3.16 µM): 0.0599 µM | IC50 (second compound 10 µM): 0.0139 µM | viability, T/C (second compound 0.0316 µM, first compound 0.000316 µM): 113% | viability, T/C (second compound 0.0316 µM, first compound 0.001 µM): 119% | viability, T/C (second compound 0.0316 µM, first compound 0.00316 µM): 112% | viability, T/C (second compound 0.0316 µM, first compound 0.01 µM): 114% | viability, T/C [1]: 104% | viability, T/C [2]: 57.1% | viability, T/C (second compound 0.1 µM, first compound 0.000316 µM): 116% | viability, T/C (second compound 0.1 µM, first compound 0.001 µM): 107% | viability, T/C (second compound 0.1 µM, first compound 0.00316 µM): 113% | viability, T/C (second compound 0.1 µM, first compound 0.01 µM): 106% | viability, T/C [7]: 107% | viability, T/C [8]: 58% | viability, T/C (second compound 0.316 µM, first compound 0.000316 µM): 116% | viability, T/C (second compound 0.316 µM, first compound 0.001 µM): 111% | viability, T/C (second compound 0.316 µM, first compound 0.00316 µM): 112% | viability, T/C (second compound 0.316 µM, first compound 0.01 µM): 112% | viability, T/C [13]: 99.9% | viability, T/C [14]: 54.9% | viability, T/C (second compound 1 µM, first compound 0.000316 µM): 118% | viability, T/C (second compound 1 µM, first compound 0.001 µM): 111% | viability, T/C (second compound 1 µM, first compound 0.00316 µM): 121% | viability, T/C (second compound 1 µM, first compound 0.01 µM): 116% | viability, T/C [19]: 111% | viability, T/C [20]: 54.2% | viability, T/C (second compound 3.16 µM, first compound 0.000316 µM): 86.8% | viability, T/C (second compound 3.16 µM, first compound 0.001 µM): 105% | viability, T/C (second compound 3.16 µM, first compound 0.00316 µM): 98.3% | viability, T/C (second compound 3.16 µM, first compound 0.01 µM): 77.9% | viability, T/C [25]: 67.9% | viability, T/C [26]: 37.2% | viability, T/C (second compound 10 µM, first compound 0.000316 µM): 76.8% | viability, T/C (second compound 10 µM, first compound 0.001 µM): 64.2% | viability, T/C (second compound 10 µM, first compound 0.00316 µM): 68.2% | viability, T/C (second compound 10 µM, first compound 0.01 µM): 49.2% | viability, T/C [31]: 44.2% | viability, T/C [32]: 27.9%

CC(Nc1ccc2c(c1)OCCn1cc(N3C(=O)OCC3C(F)F)nc1-2)C(N)=O (stereo unspecified) + C#Cc1c(F)ccc2cc(O)cc(-c3ncc4c(N5CC6CCC(C5)N6)nc(OCC56CCCN5CC(F)C6)nc4c3F)c12
IC50 (second compound 0.0316 µM): > 10 µM | IC50 (second compound 0.1 µM): > 10 µM | IC50 (second compound 0.316 µM): > 10 µM | IC50 (second compound 1 µM): > 10 µM | IC50 (second compound 3.16 µM): > 10 µM | IC50 (second compound 10 µM): < 0.0316 µM | viability, T/C [1]: 98.9% | viability, T/C [2]: 132% | viability, T/C [3]: 104% | viability, T/C [4]: 104% | viability, T/C [5]: 101% | viability, T/C [6]: 73% | viability, T/C [7]: 104% | viability, T/C [8]: 115% | viability, T/C [9]: 113% | viability, T/C [10]: 106% | viability, T/C [11]: 98.5% | viability, T/C [12]: 78.2% | viability, T/C [13]: 102% | viability, T/C [14]: 122% | viability, T/C [15]: 111% | viability, T/C [16]: 108% | viability, T/C [17]: 101% | viability, T/C [18]: 76.8% | viability, T/C [19]: 116% | viability, T/C [20]: 115% | viability, T/C [21]: 106% | viability, T/C [22]: 100% | viability, T/C [23]: 98.1% | viability, T/C [24]: 73.8% | viability, T/C [25]: 73.4% | viability, T/C [26]: 84.4% | viability, T/C [27]: 81.3% | viability, T/C [28]: 85.8% | viability, T/C [29]: 91.5% | viability, T/C [30]: 65.6% | viability, T/C [31]: 50.7% | viability, T/C [32]: 38.7% | viability, T/C [33]: 34% | viability, T/C [34]: 43.4% | viability, T/C [35]: 31.6% | viability, T/C [36]: 34.3%
